Consider two molecules from article PMC9258905, “Discovery of Quercetin and Its Analogs as Potent OXA-48 Beta-Lactamase Inhibitors” (Frontiers in Pharmacology, 2022).

Series [1] relates to cells. Conditions: 50 µM fisetin/luteolin; ref Hytti et al., 2015; cited from earlier work.
The target in series [2] is T1, OXA-48 (Klebsiella pneumoniae, UniProt Q6XEC0).
T1 construct: made in house; host or cells: E. coli BL21(DE3)
In words: Inhibition kinetics (Lineweaver-Burk plots) of OXA-48-catalyzed nitrocefin hydrolysis. In kind it is biochemical. Conditions: for inhibition mode: Lineweaver-Burk plots, Km unchanged, Vmax decreased; for Ki: nitrocefin 25, 50, 75, 100 μM, Lineweaver-Burk. On the procedure:
The inhibition mode of quercetin and the inhibition constant (K i) were determined using a Lineweaver–Burk plot by fitting the initial rate versus the substrate concentration at each inhibitor concentration using SigmaPlot 12.0. The nitrocefin concentrations were 25, 50, 75, and 100 μM, respectively. The initial velocity was determined by measuring the […] as described above. All reaction rates were determined in triplicate.
To determine the inhibition mode of the flavonoids, the inhibition kinetics of quercetin, fisetin and luteolin against OXA-48 in the presence of different concentrations of substrate were determined, and the inhibition modes were determined by generating Lineweaver-Burk plots.

Series [3] deals with E.coli BW25113 ∆acrA∆bamB (OXA-48). The series is classed as cell-based. As to conditions: for reduction in the piperacillin MIC: compound at 64 μg/mL; for MIC decrease for imipenem: compound at a dose of 64 μg/mL. On the procedure:
The recombinant plasmid containing the Pbla promoter and OXA-48 constructed above was then transformed into BW25113, BW25113 ∆acrA, BW25113 ∆bamB, and BW25113 ∆acrA∆bamB. The above strains were used to study the minimum inhibitory concentration (MIC). Antibiotic susceptibility tests were performed by the microdilution method following Clinical and Laboratory Standards Institute (CLSI) criteria ([CLSI, 2015]). Four E. coli strains expressing OXA-48 were used to assess the inhibitors. The susceptibility to piperacillin/imipenem combined with the compound at a concentration of 16 or 64 μg/mL was determined. […] Each measurement was conducted in triplicate. The fractional inhibitory concentration index (FICI) was determined according to the following formula: FICI = MIC (QT) in combination/MIC (QT) alone + MIC (PIP) in combination/MIC (PIP) alone. The drug interactions are defined as synergistic if the FICI is ≤0.5, indifferent if the FICI is >0.5 and ≤4.0, and antagonistic if the FICI is >4.0.
To investigate whether the compounds could restore the antimicrobial activity of β-lactam, the MICs of β-lactam antibiotics against resistant Gram-negative bacteria in the absence and presence of compounds (fisetin, 3′,4′,7-trihydroxyflavone, luteolin or quercetin) were determined by using published guidelines described by CLSI ([CLSI, 2015]). Specifically, we used OXA-48 producing strains E. coli BW25113, BW25113 ∆acrA, BW25113 ∆bamB, and BW25113 ∆acrA∆bamB as resistant Gram-negative bacteria. […] Imipenem, a carbapenem antibiotic, was applied at increasing concentrations ranging from 0.03 μg/mL to 4 μg/mL. The compounds were tested at 64 and 16 μg/mL.

The target in series [4] is T1, OXA-48. Description: Enzyme inhibition assay against purified OXA-48 with nitrocefin as substrate. The series is classed as biochemical. As to conditions: for percent inhibition against OXA-48: at 50 μM compound, nitrocefin substrate, 50 µM; for IC50: purified OXA-48 12 nM, nitrocefin 200 μM, 0.1 M phosphate buffer pH 7.0, 50 mM NaHCO3, 25°C, read-out: IC50 against OXA-48. On the procedure:
The inhibitory activity of compounds against the purified OXA-48 was tested on a BioTek HTS reader. The reactions were conducted in 0.1 M phosphate buffer (pH 7.0) supplemented with 50 mM NaHCO3 at 25°C with a final assay volume of 100 μL. The concentrations of enzyme and substrate were 12 nM and 200 μM, respectively. The initial reaction rates in the absence and presence of the compound were monitored at 495 nm in triplicate. The inhibitor concentration causing a 50% decrease in enzyme activity (IC50) was determined by plotting the percent inhibition against the log10 of the inhibitor concentration and fitting the data in a dose–response-inhibition model using GraphPad Prism 7.0.
Quercetin is a member of the flavonoid class with diverse structures obtained from nature, some of which have been used for the treatment of infectious diseases in traditional medical systems ([Farhadi et al., 2019]). To investigate whether quercetin and other flavonoids are OXA-48 inhibitors, the enzyme inhibition assays were conducted on a BioTek HTS reader using nitrocefin as a substrate. The concentrations of enzyme and substrate were 12 nM and 200 μM, respectively. The initial hydrolysis rate of nitrocefin was monitored at 495 nm. The percentage inhibition is defined as the enzyme activity in the absence of inhibitor (100%) minus the remaining activity in the presence of inhibitor.

For series [5], the target named is T1, OXA-48. In words: Surface plasmon resonance interaction analysis. Conditions: 12.5-200 µM quercetin over immobilized OXA-48. In kind it is binding. On the procedure: Surface plasmon resonance (SPR) experiments were performed on a Biacore T100 at 25°C. The running buffer consisted of 10 mM PBS (pH 7.3), 0.5% Tween-20, and 2.5% DMSO. OXA-48 solution was prepared in a concentration of […] in 10 mM PBS (pH 7.3) and immobilized on a CM5 chip using standard amine coupling to a level of approximately 5000 RU. Quercetin was dissolved in the running buffer and tested in 2-fold dilutions ranging from 12.5 to 200 µM with an injection time of 30 s and a dissociation time of 60 s. The data were analyzed using Biacore T100 Evaluation Software 2.0.
A surface plasmon resonance (SPR) assay was then performed to investigate whether quercetin inhibited the activity of OXA-48 by directly binding to OXA-48. OXA-48 enzyme was immobilized on a CM5 sensor chip with an immobilization level of approximately 5000 RU. Quercetin was injected at different concentrations (12.5, 25, 50, 100 and 200 µM) over the protein surface.
For orientation: Surface plasmon resonance follows binding to a sensor surface in real time, without labels.

For series [6], the system named is ∆acrA∆bamB (OXA-48) mutant strain. In words: Cell-based screen of natural products in the presence of piperacillin. On the set-up: species or system E. coli. On the procedure: The ∆acrA∆bamB (OXA-48) mutant strain was then used to screen for inhibitors of OXA-48. […] Approximately 150 plant natural products with a concentration of 40 μg/mL were screened in the presence of 128 μg/mL piperacillin.

Series [7] deals with mice. Conditions: ref Sullivan et al., 1951, Taepongsorat et al., 2008; cited from earlier work.
Series [8] addresses T2, OXA-48 β-Lactamase (Klebsiella pneumoniae, UniProt Q6XEC0).
T2 construct: made in house; host or cells: E. coli BL21(DE3)
In words: Partition ratio measurement. The series is classed as biochemical. As to conditions: OXA-48 12 nM, 1 h incubation; at a 5 μM concentration of quercetin.

Series [9] concerns E. coli BW25113 ∆acrA∆bamB (OXA-48). Description: Mouse systemic infection model. In kind it is in vivo, Kunming mice. Conditions: 10 mg/kg each, intravenous, 1 h post infection; organs 24 h post-infection; vs untreated group.
For series [10], the target named is T1, OXA-48. Description: Isothermal titration calorimetry of imipenem hydrolysis by OXA-48. Conditions: quercetin 0 to 40 µM, imipenem 1 mM, OXA-48 10 nM, 25°C. The series is classed as biochemical. (In general: Isothermal titration calorimetry measures the heat released or taken up as one component is titrated into another.)
Method: OXA-48, imipenem, and quercetin were prepared in 30 mM Tris, 5 mM NaHCO3 (pH 7.5) supplemented with 5% DMSO. […] The solutions were degassed by centrifugation at a speed of 14,000 × g for 5 min before injection. The enzyme and inhibitor samples were preincubated for 1 h and then loaded into the sample cell. Imipenem (38 µL) in the syringe was titrated into the sample cell (210 µL) in a single injection mode. Heat flow (μcal/s) was recorded as a function of time. As a negative control, the reaction in the absence of quercetin was measured. The data were collected and analyzed with MicroCal Analysis Launcher Origin 7.0 software.
Isothermal titration calorimetry (ITC) was performed to assess the thermodynamic inhibitory effect of quercetin against OXA-48 ([Zhang et al., 2018]). […] Different concentrations of quercetin were incubated with purified OXA-48 for 1 h in 30 mM Tris, 5 mM NaHCO3 (pH 7.5). The mixtures were loaded into the sample cell (210 µL). A 38 µL of the substrate (imipenem) in the syringe was titrated into the sample cell in a single injection mode.
In series [11] the test system is E. coli BW25113 ∆acrA∆bamB (OXA-48). In words: Growth curve with quercetin alone. The series is classed as cell-based. Conditions: quercetin at 16 or 64 μg/mL. From the text:
We next performed checkerboard microdilution assays against OXA-48-positive strain BW25113 ∆acrA∆bamB (OXA-48) and OXA-48-negative strain ∆acrA∆bamB to assess the synergistic antimicrobial effect. […] The synergy effect was further verified by time-kill curves.
FIGURE 6 (A,B) Heatmap showing the growth inhibition of OXA-48-positive strain E. coli BW25113 ∆acrA∆bamB (OXA-48) (A) and OXA-48-negative strain ∆acrA∆bamB (B) in the presence of quercetin and piperacillin. (C) Time-kill curves for combination therapy of piperacillin and quercetin against E. coli BW25113 ∆acrA∆bamB (OXA-48). The concentrations of piperacillin and quercetin used in the assay were 64 and 64 μg/mL , respectively. (D) The growth curve of E. coli BW25113 ∆acrA∆bamB (OXA-48) in the absence and presence of quercetin.

A word on the Ki: it is a measure of affinity in units of concentration, obtained from inhibition or displacement. The low end stands for higher affinity, the high end for lower affinity. As a reminder, the IC50 is the point on the concentration scale where inhibition reaches its midpoint. The LD50 is the dose expected to kill half of the subjects tested.

T1 sequence (Q6XEC0 23-265 limits assumed): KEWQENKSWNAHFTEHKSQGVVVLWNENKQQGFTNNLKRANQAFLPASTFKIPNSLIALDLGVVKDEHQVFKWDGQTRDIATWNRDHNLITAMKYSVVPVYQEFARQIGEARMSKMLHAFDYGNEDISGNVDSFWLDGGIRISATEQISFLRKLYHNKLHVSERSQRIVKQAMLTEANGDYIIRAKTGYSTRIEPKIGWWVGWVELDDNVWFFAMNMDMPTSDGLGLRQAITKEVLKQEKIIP
T2 sequence (Q6XEC0 23-265 limits assumed): as above

Take `O=c1c(O)c(-c2ccc(O)c(O)c2)oc2cc(O)ccc12` [Fisetin]: the “toxicity to the cells” value in [1] is reported as “no toxicity”. In series [2], the inhibition mode result is recorded as “noncompetitively inhibited” and the Ki is 620 ± 60 nM. Also, in series [3], the “reduction in the piperacillin MIC” value was 2 fold and the “MIC decrease for imipenem” value is recorded as 2 fold. Also, in series [4], the “percent inhibition against OXA-48” value turned out to be 90% and the IC50 worked out at 470 ± 30 nM. In series [4] (listed as fisetin), the “percent inhibition against OXA-48” value is listed as “more than 50%”.

Turning to `O=c1c(O)c(-c2ccc(O)c(O)c2)oc2cc(O)cc(O)c12` [Quercetin], in series [5], the “SPR interaction with OXA-48” value is recorded as “dose-dependent interaction”. In addition, in series [6] (40 μg/mL compound with 128 μg/mL piperacillin), the “restoration of antibiotic activity in screen” value is on record as “restored antibiotic activity”. The “bactericidal effect of the compound itself” value in series [6] (in the absence of piperacillin) was “without bactericidal effect”. Besides, in [2], the inhibition mode result is given as “noncompetitively inhibited” and the affinity corresponds to a Ki of 1310 ± 210 nM. Besides, the 50% lethal dose (LD50) in series [7] is 160 mg/kg. Also, the “partition ratio (I:E for greater than 90% inhibition)” value in series [8] was “approximately 420”. Besides, in [3], the “reduction in the piperacillin MIC” value stood at 8 fold and the “MIC decrease for imipenem” value is listed as 2 fold. The “bacterial load in spleen and liver” value in series [9] was “did not show a significant reduction of bacterial load”. In addition, the “reversibility of inhibition (total heat of imipenem hydrolysis)” value in series [10] is on record as “reversibly inhibited OXA-48”. Moreover, in series [4], the “percent inhibition against OXA-48” value is given as 87% and the IC50 came out at 1470 ± 140 nM. Moreover, the “percent inhibition against OXA-48” value in series [4] (listed as quercetin) is recorded as “more than 50%”. The “growth of the cells” value in [11] was “did not inhibit the growth of the cells”.
